# Measured values as given in patent US20250026778A1 (TIUMBIO CO., LTD., priority 2021, published 2025).
# Target: T1, his-galectin-3 (Homo sapiens, UniProt P17931)
# T1 construct: purchased Abcam
# Assay: TR-FRET assay (in vitro galectin-3 binding inhibitory activity test)
# Conditions: Table 1; compound at 20 μM; 60 nM his-galectin-3, 15 nM biotin-ASF; read-out: % Inhibitory activity (at 20 μM)
# How it was run: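 Compound is premixed with his-galectin-3 (60 nM final), then biotin-ASF (15 nM), Tb anti-His antibody (2 nM) and streptavidin-d2 (20 nM) are added. After at least 3.5 hours at RT in HEPES/NaCl buffer with Tween 20 and BSA, TR-FRET is read at 615/665 nm. DMSO serves as the uninhibited control, ASF omission as background.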
# T1 sequence (P17931 whole entry): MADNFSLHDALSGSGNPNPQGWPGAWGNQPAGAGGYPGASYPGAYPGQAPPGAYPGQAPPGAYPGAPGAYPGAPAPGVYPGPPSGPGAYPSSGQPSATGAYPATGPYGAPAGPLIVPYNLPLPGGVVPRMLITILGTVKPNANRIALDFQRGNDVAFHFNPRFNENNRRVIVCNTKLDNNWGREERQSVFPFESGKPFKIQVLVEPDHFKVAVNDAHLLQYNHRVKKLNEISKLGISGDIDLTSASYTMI
row,inhibition at 20 µM [%],SMILES
1,< 25,"CC(=O)N[C@H]1C(O)O[C@H](CO)[C@@H](O[C@@H]2O[C@H](CO)[C@H](O)[C@H](O)[C@H]2O)[C@@H]1O (stereo partly drawn) [LacNAc, N-acetyl-D-lactosamine, reference compound]"

# Same assay, conditions: Table 2; compound at 20 μM; 60 nM his-galectin-3, 15 nM biotin-ASF; read-out: % Inhibitory activity (at 20 μM)
row,SMILES,inhibition at 20 µM [%]
1,"Cc1cc(C(=O)N[C@@H]2CCO[C@]23O[C@H](CO)[C@H](O)[C@H](n2cc(-c4cc(F)c(F)c(F)c4)cn2)[C@H]3O)c2cc(Cl)ccc2n1 [Compound A239, 6-chloro-N-((4R,5S,7R,8R,9S,10R)-8,10-dihydroxy-7-(hydroxymethyl)-9-(4-(3,4,5-trifluorophenyl)-1H-pyrazol-1-yl)-1,6-dioxaspiro[4.5]decan-4-yl)-2-methylquinoline-4-carboxamide]",> 75
2,"Cc1ccc2ccccc2c1C(=O)N[C@@H]1CCO[C@]12O[C@H](CO)[C@H](O)[C@H](n1cc(-c3cc(F)c(F)c(F)c3)nn1)[C@H]2O [Compound A240, N-((4R,5S,7R,8R,9S,10R)-8,10-dihydroxy-7-(hydroxymethyl)-9-(4-(3,4,5-trifluorophenyl)-1H-1,2,3-triazol-1-yl)-1,6-dioxaspiro[4.5]decan-4-yl)-2-methyl-1-naphthamide]",50 to 75
3,"COc1cc(C(=O)N[C@@H]2CCO[C@]23O[C@H](CO)[C@H](O)[C@H](n2cc(-c4cc(F)c(F)c(F)c4)nn2)[C@H]3O)c2ccccc2c1 [Compound A241, N-((4R,5S,7R,8R,9S,10R)-8,10-dihydroxy-7-(hydroxymethyl)-9-(4-(3,4,5-trifluorophenyl)-1H-1,2,3-triazol-1-yl)-1,6-dioxaspiro[4.5]decan-4-yl)-3-methoxy-1-naphthamide]",> 75
4,"COc1ccc2ccccc2c1C(=O)N[C@@H]1CCO[C@]12O[C@H](CO)[C@H](O)[C@H](n1cc(-c3cc(F)c(F)c(F)c3)nn1)[C@H]2O [Compound A242, N-((4R,5S,7R,8R,9S,10R)-8,10-dihydroxy-7-(hydroxymethyl)-9-(4-(3,4,5-trifluorophenyl)-1H-1,2,3-triazol-1-yl)-1,6-dioxaspiro[4.5]decan-4-yl)-2-methoxy-1-naphthamide]",50 to 75
5,"Cc1ccc(C(=O)N[C@@H]2CCO[C@]23O[C@H](CO)[C@H](O)[C@H](n2cc(-c4cc(F)c(F)c(F)c4)nn2)[C@H]3O)c2ccccc12 [Compound A243, N-((4R,5S,7R,8R,9S,10R)-8,10-dihydroxy-7-(hydroxymethyl)-9-(4-(3,4,5-trifluorophenyl)-1H-1,2,3-triazol-1-yl)-1,6-dioxaspiro[4.5]decan-4-yl)-4-methyl-1-naphthamide]",> 75
6,"O=C(N[C@@H]1CCO[C@]12O[C@H](CO)[C@H](O)[C@H](n1cc(-c3cc(F)c(F)c(F)c3)nn1)[C@H]2O)c1cccc2cccnc12 [Compound A244, N-((4R,5S,7R,8R,9S,10R)-8,10-dihydroxy-7-(hydroxymethyl)-9-(4-(3,4,5-trifluorophenyl)-1H-1,2,3-triazol-1-yl)-1,6-dioxaspiro[4.5]decan-4-yl)quinoline-8-carboxamide]",50 to 75
7,"Cc1cc(C(=O)N[C@@H]2CCO[C@]23O[C@H](CO)[C@H](O)[C@H](n2cc(-c4cc(F)c(F)c(F)c4)nn2)[C@H]3O)c2cccnc2c1 [Compound A245, N-((4R,5S,7R,8R,9S,10R)-8,10-dihydroxy-7-(hydroxymethyl)-9-(4-(3,4,5-trifluorophenyl)-1H-1,2,3-triazol-1-yl)-1,6-dioxaspiro[4.5]decan-4-yl)-7-methylquinoline-5-carboxamide]",> 75
8,"O=C(N[C@@H]1CCO[C@]12O[C@H](CO)[C@H](O)[C@H](n1cc(-c3cc(F)c(F)c(F)c3)nn1)[C@H]2O)c1cccc2ccncc12 [Compound A246, N-((4R,5S,7R,8R,9S,10R)-8,10-dihydroxy-7-(hydroxymethyl)-9-(4-(3,4,5-trifluorophenyl)-1H-1,2,3-triazol-1-yl)-1,6-dioxaspiro[4.5]decan-4-yl)isoquinoline-8-carboxamide]",> 75
9,"O=C(N[C@@H]1CCO[C@]12O[C@H](CO)[C@H](O)[C@H](n1cc(-c3cc(F)c(F)c(F)c3)nn1)[C@H]2O)c1cccc2cnccc12 [Compound A247, N-((4R,5S,7R,8R,9S,10R)-8,10-dihydroxy-7-(hydroxymethyl)-9-(4-(3,4,5-trifluorophenyl)-1H-1,2,3-triazol-1-yl)-1,6-dioxaspiro[4.5]decan-4-yl)isoquinoline-5-carboxamide]",> 75

# The next lines start with the values.
row,inhibition at 20 µM [%],SMILES
1,< 25,"O=C(N[C@@H]1CCO[C@]12O[C@H](CO)[C@H](O)[C@H](n1cc(-c3cc(F)c(F)c(F)c3)nn1)[C@H]2O)c1csc2cccc(Br)c12 [Compound A248, 4-bromo-N-((4R,5S,7R,8R,9S,10R)-8,10-dihydroxy-7-(hydroxymethyl)-9-(4-(3,4,5-trifluorophenyl)-1H-1,2,3-triazol-1-yl)-1,6-dioxaspiro[4.5]decan-4-yl)benzo[b]thiophene-3-carboxamide]"
2,> 75,"O=C(N[C@@H]1CCO[C@]12O[C@H](CO)[C@H](O)[C@H](n1cc(-c3cc(F)c(F)c(F)c3)nn1)[C@H]2O)c1csc2ccc(F)cc12 [Compound A249, N-((4R,5S,7R,8R,9S,10R)-8,10-dihydroxy-7-(hydroxymethyl)-9-(4-(3,4,5-trifluorophenyl)-1H-1,2,3-triazol-1-yl)-1,6-dioxaspiro[4.5]decan-4-yl)-5-fluorobenzo[b]thiophene-3-carboxamide]"
3,> 75,"O=C(N[C@@H]1CCO[C@]12O[C@H](CO)[C@H](O)[C@H](n1cc(-c3cc(F)c(F)c(F)c3)nn1)[C@H]2O)c1coc2cccc(Br)c12 [Compound A250, 4-bromo-N-((4R,5S,7R,8R,9S,10R)-8,10-dihydroxy-7-(hydroxymethyl)-9-(4-(3,4,5-trifluorophenyl)-1H-1,2,3-triazol-1-yl)-1,6-dioxaspiro[4.5]decan-4-yl)benzofuran-3-carboxamide]"
4,> 75,"O=C(N[C@@H]1CCO[C@]12O[C@H](CO)[C@H](O)[C@H](n1cc(-c3cc(F)c(F)c(F)c3)nn1)[C@H]2O)c1csc2ccc(Br)cc12 [Compound A251, 5-bromo-N-((4R,5S,7R,8R,9S,10R)-8,10-dihydroxy-7-(hydroxymethyl)-9-(4-(3,4,5-trifluorophenyl)-1H-1,2,3-triazol-1-yl)-1,6-dioxaspiro[4.5]decan-4-yl)benzo[b]thiophene-3-carboxamide]"
5,> 75,"O=C(N[C@@H]1CCO[C@]12O[C@H](CO)[C@H](O)[C@H](n1cc(-c3cc(F)c(F)c(F)c3)nn1)[C@H]2O)c1cc(=O)[nH]c2ccc(Br)cc12 [Compound A252, 6-bromo-N-((4R,5S,7R,8R,9S,10R)-8,10-dihydroxy-7-(hydroxymethyl)-9-(4-(3,4,5-trifluorophenyl)-1H-1,2,3-triazol-1-yl)-1,6-dioxaspiro[4.5]decan-4-yl)-2-oxo-1,2-dihydroquinoline-4-carboxamide]"
6,> 75,"O=C(N[C@@H]1CCO[C@]12O[C@H](CO)[C@H](O)[C@H](n1cc(-c3cc(F)c(F)c(F)c3)nn1)[C@H]2O)c1c[nH]c2cccc(Br)c12 [Compound A253, 4-bromo-N-((4R,5S,7R,8R,9S,10R)-8,10-dihydroxy-7-(hydroxymethyl)-9-(4-(3,4,5-trifluorophenyl)-1H-1,2,3-triazol-1-yl)-1,6-dioxaspiro[4.5]decan-4-yl)-1H-indole-3-carboxamide]"
7,50 to 75,"O=C(N[C@@H]1CCO[C@]12O[C@H](CO)[C@H](O)[C@H](n1cc(-c3cc(F)c(F)c(F)c3)nn1)[C@H]2O)c1cc(=O)[nH]c2ccccc12 [Compound A254, N-((4R,5S,7R,8R,9S,10R)-8,10-dihydroxy-7-(hydroxymethyl)-9-(4-(3,4,5-trifluorophenyl)-1H-1,2,3-triazol-1-yl)-1,6-dioxaspiro[4.5]decan-4-yl)-2-oxo-1,2-dihydroquinoline-4-carboxamide]"
8,> 75,"O=C(N[C@@H]1CCO[C@]12O[C@H](CO)[C@H](O)[C@H](n1cc(-c3cc(F)c(F)c(F)c3)nn1)[C@H]2O)c1c[nH]c2cccc(F)c12 [Compound A255, N-((4R,5S,7R,8R,9S,10R)-8,10-dihydroxy-7-(hydroxymethyl)-9-(4-(3,4,5-trifluorophenyl)-1H-1,2,3-triazol-1-yl)-1,6-dioxaspiro[4.5]decan-4-yl)-4-fluoro-1H-indole-3-carboxamide]"
9,> 75,"O=C(N[C@@H]1CCO[C@]12O[C@H](CO)[C@H](O)[C@H](n1cc(-c3cc(F)c(F)c(F)c3)nn1)[C@H]2O)c1cccc2ccc(Cl)cc12 [Compound A256, 7-chloro-N-((4R,5S,7R,8R,9S,10R)-8,10-dihydroxy-7-(hydroxymethyl)-9-(4-(3,4,5-trifluorophenyl)-1H-1,2,3-triazol-1-yl)-1,6-dioxaspiro[4.5]decan-4-yl)-1-naphthamide]"
10,25 to 50,"CO[C@@H]1[C@@H](n2cc(-c3cc(F)c(F)c(F)c3)nn2)[C@@H](O)[C@@H](CO)O[C@@]12CCCO2 [Compound A257, (5S,7R,8R,9S,10R)-7-(hydroxymethyl)-10-methoxy-9-(4-(3,4,5-trifluorophenyl)-1H-1,2,3-triazol-1-yl)-1,6-dioxaspiro[4.5]decan-8-ol]"

# Same assay, conditions: Table 3, found values; compound at 20 μM; 60 nM his-galectin-3, 15 nM biotin-ASF; read-out: % Inhibitory activity (at 20 μM)
row,inhibition at 20 µM [%],SMILES
1,72.1,"Cc1ccc2ccccc2c1C(=O)N[C@@H]1CCO[C@]12O[C@H](CO)[C@H](O)[C@H](n1cc(-c3cc(F)c(F)c(F)c3)nn1)[C@H]2O [Compound A240, N-((4R,5S,7R,8R,9S,10R)-8,10-dihydroxy-7-(hydroxymethyl)-9-(4-(3,4,5-trifluorophenyl)-1H-1,2,3-triazol-1-yl)-1,6-dioxaspiro[4.5]decan-4-yl)-2-methyl-1-naphthamide]"
2,89.9,"O=C(N[C@@H]1CCO[C@]12O[C@H](CO)[C@H](O)[C@H](n1cc(-c3cc(F)c(F)c(F)c3)nn1)[C@H]2O)c1csc2ccc(F)cc12 [Compound A249, N-((4R,5S,7R,8R,9S,10R)-8,10-dihydroxy-7-(hydroxymethyl)-9-(4-(3,4,5-trifluorophenyl)-1H-1,2,3-triazol-1-yl)-1,6-dioxaspiro[4.5]decan-4-yl)-5-fluorobenzo[b]thiophene-3-carboxamide]"
3,39.2,"CO[C@@H]1[C@@H](n2cc(-c3cc(F)c(F)c(F)c3)nn2)[C@@H](O)[C@@H](CO)O[C@@]12CCCO2 [Compound A257, (5S,7R,8R,9S,10R)-7-(hydroxymethyl)-10-methoxy-9-(4-(3,4,5-trifluorophenyl)-1H-1,2,3-triazol-1-yl)-1,6-dioxaspiro[4.5]decan-8-ol]"
